Calls of active or inactive are those of the source. No cut-off for these calls is given here. Bounds are passed on as bounds.

A short description of data set [1]: Inhibition of HIV protease assessed as reduction in enzyme-mediated substrate hydrolysis using Abz-Thr-Ile-Nle-Phe(NO2)-Gln-Arg fluorogenic substrate. Also on record: species or system Human immunodeficiency virus.
Data set [2] in a line: Cytotoxicity in HEK293 cells assessed as reduction in cell viability by MTT assay. Format: cell-based. The following applies: human.
A short description of data set [3]: Cytotoxicity in HEK293 cells assessed as reduction in cell viability after 24 hrs by MTT assay. The class given is cell-based. The following applies: human.
The target in data set [4] is Protease (Human immunodeficiency virus 1) (UniProt Q9YQ12). The data set is described as follows: Inhibition of GFP-tagged HIV1 protease transfected in HEK293 cells at 10 to 30 uM incubated for 24 hrs by FACS analysis. The class given is cell-based.
Sequence of Protease (Human immunodeficiency virus 1) (Q9YQ12 as listed by the source): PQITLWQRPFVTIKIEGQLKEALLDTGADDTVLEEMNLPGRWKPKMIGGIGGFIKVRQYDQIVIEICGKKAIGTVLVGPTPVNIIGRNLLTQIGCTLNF
Data set [5] shares this target. The data set is described as follows: Inhibition of GFP-tagged HIV1 protease transfected in HEK293 cells at 30 uM incubated for 24 hrs by fluorescence microscopy. Format: cell-based.
Data set [6] can be described thus: Intrinsic clearance in human liver microsomes assessed per mg protein. Format: ADME, Microsome. The following applies: read-out: CLH. Background: Liver microsomes are a subcellular fraction often used to study metabolism.
Data set [7] is described as follows: Intrinsic clearance in rat liver microsomes assessed per mg protein. Format: ADME, Microsome. To be noted: read-out: CLH.
Data set [8] concerns the target Protease (Human immunodeficiency virus 1) (UniProt Q9YQ12). Put plainly: Inhibition of GFP-tagged HIV1 protease transfected in HEK293 cells at 10 uM incubated for 24 hrs by FACS analysis. The class given is cell-based. Background: In flow cytometry, cells or beads pass a laser one at a time.
The test system of data set [9] is Protease (Human immunodeficiency virus 1), Q9YQ12 [V32I]. The data set is described as follows: Inhibition of GFP-tagged HIV1 protease V32I mutant transfected in HEK293 cells at 10 uM incubated for 24 hrs by fluorescence microscopy. The class given is cell-based.
Sequence of Protease (Human immunodeficiency virus 1), Q9YQ12 [V32I] (Q9YQ12 entry or part of it V32I): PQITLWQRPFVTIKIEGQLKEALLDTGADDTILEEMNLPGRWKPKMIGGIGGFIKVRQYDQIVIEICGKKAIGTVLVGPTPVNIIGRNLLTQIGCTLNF
Data set [10] deals with Protease (Human immunodeficiency virus 1), Q9YQ12 [V82A]. Put plainly: Inhibition of GFP-tagged HIV1 protease V82A mutant transfected in HEK293 cells at 10 uM incubated for 24 hrs by fluorescence microscopy. Format: cell-based.
Sequence of Protease (Human immunodeficiency virus 1), Q9YQ12 [V82A] (Q9YQ12 entry or part of it V82A): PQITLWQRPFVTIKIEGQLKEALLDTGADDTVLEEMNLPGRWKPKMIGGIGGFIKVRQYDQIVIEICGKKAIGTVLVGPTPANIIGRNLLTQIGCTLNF
The target in data set [11] is Protease (Human immunodeficiency virus 1) (UniProt Q9YQ12). Put plainly: Inhibition of GFP-tagged HIV1 protease transfected in HEK293 cells at 30 uM incubated for 24 hrs by FACS analysis. Format: cell-based.
Data set [12] shares this target. The data set is described as follows: Inhibition of GFP-tagged HIV1 protease transfected in HEK293 cells at 10 uM incubated for 24 hrs by fluorescence microscopy. Format: cell-based.
For data set [13], the system named is Protease (Human immunodeficiency virus 1), Q9YQ12 [V32I]. The data set is described as follows: Inhibition of GFP-tagged HIV1 protease V32I mutant transfected in HEK293 cells at 30 uM incubated for 24 hrs by fluorescence microscopy. Format: cell-based.
For data set [14], the system named is Protease (Human immunodeficiency virus 1), Q9YQ12 [V82A]. The data set is described as follows: Inhibition of GFP-tagged HIV1 protease V82A mutant transfected in HEK293 cells at 30 uM incubated for 24 hrs by fluorescence microscopy. The class given is cell-based.

By IC50 is commonly meant the concentration that gives 50% inhibition. A word on the CC50: it is the concentration that lowers cell viability or growth by half. With `COc1ccc(S(=O)(=O)N(CC(C)C)C[C@@H](O)CNC(=O)Oc2ccc3sccc3c2)cc1`, the IC50 in data set [1] turned out to be 49 nM. The CC50 in data set [2] is more than 100 µM. The cytotoxic concentration (CC50) at 24 h in data set [3] is more than 60 µM. Moreover, in data set [4], the inhibition result was “inactive”. In addition, in data set [5], the “inhibition call (active/not active)” value is “inactive”.
Regarding `CC(C)CN(C[C@@H](O)[C@H](Cc1ccccc1)NC(=O)O[C@H]1CO[C@H]2OCC[C@H]21)S(=O)(=O)c1ccc(N)cc1`, the inhibition entry in [4] is “Active”. Also, the “inhibition call (active/not active)” value in data set [5] is “Active”.
On to `COc1ccc(S(=O)(=O)N(CC(C)C)C[C@@H](O)[C@H](Cc2ccccc2)NC(=O)Oc2ccc3sccc3c2)cc1`, for which the IC50 in [1] was 10.8 nM. Moreover, in data set [3], the CC50 at 24 h was more than 60 µM. Besides, the inhibition entry in data set [4] is “inactive”. Further, in [5], the “inhibition call (active/not active)” value is “inactive”.
On to `COc1ccc(S(=O)(=O)N(CC(C)C)C[C@@H](O)[C@H](Cc2ccccc2)NC(=O)Oc2ccc3[nH]ccc3c2)cc1`, for which the IC50 in [1] was not above 0.6 nM. Moreover, the CC50 in [2] was 2.8 µM. The microsomal CLint amounted to 548 µL/min/mg in data set [6] and 522 µL/min/mg in [7]. Also, the CC50 at 24 h in data set [3] is more than 60 µM. Further, the inhibition entry in [4], in [8], in [9] and in [10] was “Active” each time. In addition, the “inhibition call (active/not active)” value in [5] was “Active”.
Regarding `COc1ccc(S(=O)(=O)N(CC(C)C)C[C@@H](O)[C@H](Cc2ccccc2)NC(=O)Oc2ccc3occc3c2)cc1`, in [1], the 50% inhibitory concentration (IC50) was not above 0.6 nM. In [2], the cytotoxic concentration (CC50) is more than 100 µM. Also, the microsomal CLint in [6] came to 121 µL/min/mg; in data set [7], 26.8 µL/min/mg. Moreover, the 50% cytotoxic concentration (CC50) at 24 h in [3] is more than 60 µM. The inhibition result in [4], in [11], in data set [12], in data set [13] and in data set [14] was “Active” throughout. In data set [5], the “inhibition call (active/not active)” value was “Active”.
As for `COc1ccc(S(=O)(=O)N(CC(C)C)C[C@@H](O)CNC(=O)Oc2ccc3[nH]ccc3c2)cc1`, the IC50 in data set [1] came to 13400 nM. Besides, in [3], the CC50 at 24 h is more than 60 µM. Also, the inhibition entry in data set [4] is “inactive”. For the same compound, the “inhibition call (active/not active)” value in data set [5] is “inactive”.
Regarding `COc1ccc(S(=O)(=O)N(CC(C)C)C[C@@H](O)CNC(=O)Oc2ccc3occc3c2)cc1`, the IC50 in data set [1] turned out to be 15400 nM. Besides, in data set [3], the CC50 at 24 h is more than 60 µM. Further, in [4], the inhibition result is “inactive”. Also, the “inhibition call (active/not active)” value in [5] was “inactive”.

The record behind these values is ChEMBL document CHEMBL4392835, “New heteroaryl carbamates: Synthesis and biological screening in vitro and in mammalian cells of wild-type and mutant HIV-protease inhibitors” (Bioorg Med Chem, 2019).
